Test results published in US20260152509A1, “DELIVERY OF THERAPEUTIC ALKALOID COMPOUNDS” (priority 2021, published 2026).
pIC50: −log10 of the molar value. Read-outs that look alike come from different tables or passages of the source.

Experiments:
[1] = assay type: physicochemical; details: for Conversion (%) / Notes (stability): 0.5 mM
Procedure: The hydrolysis kinetics was under a certain temperature and measured by LCMS at a certain time interval. The corresponding LCMS chromatograms were recorded and the conversions were calculated. The hydrolysis conditions and the data were summarized in below table. LCMS spectra were obtained using Agilent 1200\G1956A or SHIMADZU LCMS-2020. Standard LCMS conditions were as follows (running time 1.55 minutes):
Acidic condition: Mobile Phase A: 0.0375% TFA in water (v/v). Mobile Phase B: 0.01875% TFA in acetonitrile (v/v); Column: Kinetex EVO C18 30*2.1 mm, 5 μm.
Basic condition: Mobile Phase A: 0.025% NH3·H2O in water (v/v). Mobile Phase B: Acetonitrile; Column: Kinetex EVO C18 2.1×30 mm, 5 μm.
Conversion (%)=peak area 1/(peak area 1+peak area 2)*100%, peak area 1 is the integration of hydrolyzed product, peak area 2 is the integration of starting material.

[2] = target: T1, SERT (Homo sapiens, UniProt P31645); assay: SERT inhibition, Neurotransmitter Transportation Fluorescence assay; assay type: cell-based; details: 30 minutes at 37° C.
T1 construct: expressed in transfected cells
Procedure: SERT inhibition was measured using a Neruotransmitter Transportation Fluorescence assay. […] Compounds were prepared by in assay buffer (20 mM HEPES, 0.1% BSA). The compounds were added to the plated cells and incubated for 30 minutes at 37° C. 25 μL of dye solution (Molecular Devices Neurotransmitter Transporter Uptake Assay Kit) was added per well and incubated for 30 minutes at 37° C. The plates were then read on a plate reader.

[3] = Pharmacokinetics of 047 and 016 after single oral 047 in mice; details: analyte after single PO 047 75 mg/kg, male C57BL/6 mice
Procedure: Total twelve male mice were used in this study. Animals were administered through oral route with solution formulation of 047 at 75 mg/kg dose. The formulation vehicle used was normal saline. Blood samples (approximately 60 μL) were collected under light isoflurane anesthesia from a set of two mice at 0.25, 0.5, 1, 2, 4 and 8 h. The blood samples were collected at each time point in labeled micro centrifuge tube containing K2EDTA as anticoagulant and PMSF (100 mM; 10 μL/mL of blood) as a stabilizer. Plasma samples were separated by centrifugation of whole blood and stored below −70° C. until bioanalysis. Following blood collection, immediately animals were sacrificed followed by abdominal vena-cava was cut open and whole body was perfused from heart using 10 mL of normal saline. Brain samples were collected from set of two mice at 0.25, 0.5, 1, 2, 4 and 8 h. After isolation, brain samples were rinsed three times in ice cold normal saline (for 5-10 seconds/rinse using ˜10-20 mL normal saline in disposable petri dish for each rinse) and dried on blotting paper. Brain samples were homogenized using ice-cold phosphate buffer saline (pH-7.4) and PMSF (100 mM; 10 μL/mL of blood) as a stabilizer. Brain homogenates were stored below −70±10° C. until analysis. Total homogenate volume was three times of the brain weight.
Plasma and brain samples were quantified by fit-for-purpose LC-MS/MS method.

[4] = pH = 7.4, 25° C., PBS (20 mM), 0-24 h
[5] = pH = 2.0, 25° C., 0.01M HCl, 0-24 h
[6] = pH = 2.0, 37° C., 0.01M HCl, 0-24 h

T1 sequence (P31645 whole entry, species assumed): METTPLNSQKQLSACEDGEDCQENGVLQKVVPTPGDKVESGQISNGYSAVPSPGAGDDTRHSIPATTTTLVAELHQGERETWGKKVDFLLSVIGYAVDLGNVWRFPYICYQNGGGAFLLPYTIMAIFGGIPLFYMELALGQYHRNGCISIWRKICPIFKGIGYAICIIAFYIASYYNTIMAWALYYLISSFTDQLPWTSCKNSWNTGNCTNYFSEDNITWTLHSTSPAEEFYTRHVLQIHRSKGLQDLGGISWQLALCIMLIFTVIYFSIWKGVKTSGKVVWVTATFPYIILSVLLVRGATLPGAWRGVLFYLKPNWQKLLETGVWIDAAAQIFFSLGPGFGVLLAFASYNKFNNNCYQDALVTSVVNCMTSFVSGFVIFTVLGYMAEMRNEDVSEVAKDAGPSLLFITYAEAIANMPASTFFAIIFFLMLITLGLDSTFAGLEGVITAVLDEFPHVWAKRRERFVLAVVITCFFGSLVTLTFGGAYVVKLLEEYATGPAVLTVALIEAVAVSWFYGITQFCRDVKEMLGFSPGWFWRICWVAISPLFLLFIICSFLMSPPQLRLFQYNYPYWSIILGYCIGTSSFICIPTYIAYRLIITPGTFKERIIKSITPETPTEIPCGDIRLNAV

In the case of `COc1ccc(C23C=CC4(CC2N(C)CC3)OCCO4)cc1OC` (stereo not drawn) [Compound 015, (3′aR,7′aS)-3′a-(3,4-dimethoxyphenyl)-1′-methyl-spiro[1,3-dioxolane-2,6′-2,3,7,7a-tetrahydroindole]], the “conversion to mesembrenone (in words)” value ([1]; pH 2) was “converted to mesembrenone”.

With `COc1ccc([C@@]23C=CC4(C[C@@H]2N(C)CC3)OCCO4)cc1OC` [Compound 047, (3′aR,7′aS)-3′a-(3,4-dimethoxyphenyl)-1′-methyl-spiro[1,3-dioxolane-2,6′-2,3,7,7a-tetrahydroindole]] the pIC50 [2] was 6.24 and the “Brain concentrations quantifiable up to” value [3] was “up to 4 h”.

With `COc1ccc(C23C=CC(=O)CC2N(C)CC3)cc1OC` (racemic) [Compound 016, 3a-(3,4-dimethoxyphenyl)-1-methyl-2,3,7,7a-tetrahydroindol-6-one, reference compound] the “further hydrolysis (in words)” value ([1]; pH 2.0 in 0.01 M HCl to pH 7.4 in 20 mM PBS, 25° C. to 40° C.) was “did not further hydrolyze”, the “Conversion (%)” value [1, 4] was 0% and the “Notes (stability)” value [1, 4] was “Stable”. The “Brain concentrations quantifiable up to” value [3] was “up to 4 h”.

With `COc1ccc([C@@]23C=CC4(C[C@@H]2N(C)CC3)SCCS4)cc1OC` (stereo in doubt) [Compound 017, 3′a-(3,4-dimethoxyphenyl)-1′-methyl-spiro[1,3-dithiolane-2,6′-2,3,7,7a-tetrahydroindole]] the “Conversion (%)” value [1, 5] was 0%, the “Notes (stability)” value [1, 5] was “Stable” and the “Conversion (%)” value [1, 6] was 0%. The “Notes (stability)” value [1, 6] was “Stable”.

In the case of `COc1ccc([C@@]23C=CC4(C[C@@H]2N(C)CC3)OCCO4)cc1OC` [Compound 015, (3′aR,7′aS)-3′a-(3,4-dimethoxyphenyl)-1′-methyl-spiro[1,3-dioxolane-2,6′-2,3,7,7a-tetrahydroindole]], the “Conversion (%)” value ([1]; pH = 2.0, 25° C., 0.01M HCl, 1 min) was 19%, the “Conversion (%)” value ([1]; pH = 2.0, 25° C., 0.01M HCl, 10 min) was 46% and the “Conversion (%)” value ([1]; pH = 2.0, 25° C., 0.01M HCl, 30 min) was 66%. The “Conversion (%)” value ([1]; pH = 2.0, 25° C., 0.01M HCl, 120 min) was 99%.

`COc1ccc([C@]23C=CC4(C[C@H]2N(C)CC3)OCCO4)cc1OC` [Compound 048, (3′aS,7′aR)-3′a-(3,4-dimethoxyphenyl)-1′-methyl-spiro[1,3-dioxolane-2,6′-2,3,7,7a-tetrahydroindole]] showed a pIC50 [2] of 6.03.

With `COc1ccc([C@]23C=CC4(C[C@H]2N(C)CC3)SCCS4)cc1OC` [Compound 050, (3′aS,7′aR)-3′a-(3,4-dimethoxyphenyl)-1′-methyl-spiro[1,3-dithiolane-2,6′-2,3,7,7a-tetrahydroindole]] the pIC50 [2] was 6.39.

`COc1ccc([C@@]23C=CC4(C[C@@H]2N(C)CC3)SCCS4)cc1OC` [Compound 049, (3′aR,7′aS)-3′a-(3,4-dimethoxyphenyl)-1′-methyl-spiro[1,3-dithiolane-2,6′-2,3,7,7a-tetrahydroindole]] showed a pIC50 [2] of 6.80.
